# Where two headings read alike, the source gives them in different places. Positions of bridges follow the written chain, without caps; N, C: chain ends. Non-standard residues stand in square brackets, D forms with d. Residues, ends and D or L forms follow the SMILES beside them. S5 = C=CCCC[C@](C)(N)C(=O)O
# How the values were obtained:
# S. pneumonia [1] = test system: S. pneumonia
# S. aureus [2] = test system: S. aureus
# A549 lung cancer cells = format: cell-based; conditions: human, 24 h
# Description: (§1) MCF-7 and A549 cells were cultured under aseptic conditions at 37° C. and 5% CO2 using Dulbecco's Modified Eagle's Medium (DMEM), accompanied with 1% mixture of “Penicillin-Streptomycin”, and 10% Fetal Bovine Serum (FBS). The cells were processed and grown in a sterile environment and all the procedures were done in a biosafety cabinet. The cells were harvested using 0.25% trypsin containing EDTA and phenol red, once they reached around 80% confluency. To test the in-vitro toxicity of the antimicrobial peptide, the harvested cells were seeded in 96 well plates for conducting a cell viability assay using MTT (3-(4,5-dimethylthiazol-2-yl)-2,5-diphenyl tetrazolium bromide).
# (§2) In order to investigate the in-vitro cytotoxicity of ssTAMP using the MTT assay, cell viability was carried out in MCF-7 and A549 cells. To achieve a cell density of 5×10^5 cells/mL, trypsin was introduced to the cells during their exponential phase of growth. After that, 100 μL of media and the cell suspension (15000 cells/well) were placed on a flat-bottomed microplate, where they were left to attach to the bottom overnight. The following day, 10 μL of freshly prepared medium containing ssTAMP concentrations ranging from 7.81 to 1000 µg/mL was added to the preexisting medium. As a negative control, a triplicate of untreated, FBS-free DMEM were used. Each product's dilution was tested three times. After 24 hours, the media was carefully removed from the wells. After that, 10 μL of MTT solution (5 mg/mL in PBS) and 90 μL of the medium were added. After that, this combination was incubated for 4 hours at room temperature. The medium and MTT in the culture fluid were then drawn out, leaving the formazan crystal precipitate. Formazan was dissolved for 15 minutes at room temperature in a […]. At 570 nm, the absorbance was measured (Synergy HT, BioTek Inst., VT, USA). Cell viability was calculated as a percentage of the absorbance when compared with negative control considered as 100%. The cytotoxic effects of ssTAMP on MCF-7 and A549 cells were expressed as IC50 values.
# (§3) The percentage cell viabilities of MCF-7 breast cancer cells and A549 lung cancer cells against varying concentrations of ssTAMP are presented in FIGS. 3A-3B. […] The cytotoxicity starts to appear at the lowest concentration of ssTAMP used (7.81 μg/mL in MCF-7, and 15.62 μg/mL in A549). The effect pattern of the ssTAMP in both the cell lines is similar up to the concentration of 250 μg/mL. However MCF-7 appear to be more sensitive at higher concentrations of ssTAMP above 250 μg/mL.
# [3] = test system: MCF-7 breast cancer cells; format: cell-based; conditions: human, 24 h
# Description: as §1, §2, §3
# B. subtilis [4] = test system: B. subtilis
# Kleibsella pneumonia [5] = test system: Kleibsella pneumonia
# Kleibsella pneumonia [6] = assay: organism not typed; format: cell-based; conditions: 30 μl in 6 mm well, ssTAMP 100 μg/ml, Kanamycin 10 μg/ml, 24 hours, mean±SD, n=3
# Description: (§4) Microbial cultures were procured from the microbiology department, College of Pharmacy, King Saud University, Riyadh. Strains were grown aerobically at 37° C. with shaking in Muller Hilton media.
# (§5) The agar diffusion method was used to examine the synthesized ssTAMP's antibacterial activity. Pure colonies of Bacillus subtilis, Streptococcus pneumonia, Staphalycoccus aureus, Streptococcus mutans, Escherichia coli, and Kleibsella pneumonia were used for antibacterial susceptibility testing according to Clinical Laboratory Standards Institute (CLSI) 2021 guidelines by using a modified Kirby-Bauer disk diffusion technique. In brief, homogeneous colonies were chosen from each microbial strain and grown on Mullar Hilton broth at log phase. 0.5 McFarland standard culture was used to spread on to the Mullar Hilton agar plates. Freshly prepared 30 μl each of Kanamycin 10 μg/ml and ssTAMP 100 μg/ml was poured into 6 mm diameter well, blank well with equivalent amount of saline served as a […]. The plates were incubated for 24 hours, and the diameter of the inhibition zone was measured to determine if the findings were susceptible or resistant. The full analysis was carried out three times.
# (§6) The agar diffusion method was used to test antimicrobial susceptibility of sSTAMP against B. Subtilis, S. Pneumoniae, S. Aureus, S. Mutans, E. Coli, and Kleibsella pneumonia strains (FIG. 1).
# E. coli [7] = test system: E. coli
# Streptococcus pneumonia = assay: microbe, parasite or virus in culture; format: cell-based; conditions: S. pneumonia, 30 μl in 6 mm well, ssTAMP 100 μg/ml, Kanamycin 10 μg/ml, 24 hours, mean±SD, n=3
# Description: as §4, §5, §6
# Escherichia coli = assay: microbe, parasite or virus in culture; format: cell-based; conditions: E. coli, 30 μl in 6 mm well, ssTAMP 100 μg/ml, Kanamycin 10 μg/ml, 24 hours, mean±SD, n=3
# Description: as §4, §5, §6
# Streptococcus mutans = assay: microbe, parasite or virus in culture; format: cell-based; conditions: S. mutans, 30 μl in 6 mm well, ssTAMP 100 μg/ml, Kanamycin 10 μg/ml, 24 hours, mean±SD, n=3
# Description: as §4, §5, §6
# Bacillus subtilis = assay: microbe, parasite or virus in culture; format: cell-based; conditions: B. subtilis, 30 μl in 6 mm well, ssTAMP 100 μg/ml, Kanamycin 10 μg/ml, 24 hours, mean±SD, n=3
# Description: as §4, §5, §6
# Staphylococcus aureus = assay: microbe, parasite or virus in culture; format: cell-based; conditions: S. aureus, 30 μl in 6 mm well, ssTAMP 100 μg/ml, Kanamycin 10 μg/ml, 24 hours, mean±SD, n=3
# Description: as §4, §5, §6
# S. mutans [8] = test system: S. mutans
# S. pneumonia [9] = assay: microbe, parasite or virus in culture; conditions: Streptococcus pneumoniae, read-out: Minimum Inhibitory concentration
# S. aureus [10] = assay: microbe, parasite or virus in culture; conditions: Staphylococcus aureus, read-out: Minimum Inhibitory concentration
# S. mutans [11] = assay: microbe, parasite or virus in culture; conditions: Streptococcus mutans, read-out: Minimum Inhibitory concentration
# E. coli [12] = assay: microbe, parasite or virus in culture; conditions: Escherichia coli, read-out: Minimum Inhibitory concentration
# Kleibsella pneumonia [13] = assay: organism not typed; conditions: read-out: Minimum Inhibitory concentration
# B. subtilis [14] = assay: microbe, parasite or virus in culture; conditions: Bacillus subtilis, read-out: Minimum Inhibitory concentration
# [15] = S. pneumonia, microdilution, overnight 37° C., mean±SD, n=3
# [16] = B. subtilis, microdilution, overnight 37° C., mean±SD, n=3
# [17] = Kleibsella pneumonia, microdilution, overnight 37° C., mean±SD, n=3
# [18] = E. coli, microdilution, overnight 37° C., mean±SD, n=3
# [19] = S. mutans, microdilution, overnight 37° C., mean±SD, n=3
smiles,measurement,setting,value
CC[C@H](C)[C@H](NC(=O)[C@H](CCCNC(=N)N)NC(=O)[C@H](CCCCN)NC(=O)[C@]1(C)CCCC=CCCC[C@](C)(NC(=O)[C@H](CCCCN)NC(=O)[C@H](CCC(=O)O)NC(=O)[C@H](CCCCN)NC(=O)[C@H](CO)NC(=O)[C@H](CCCCN)NC(=O)[C@H](CCCNC(=N)N)NC(=O)[C@H](Cc2ccccc2)NC(=O)[C@H](Cc2ccccc2)NC(=O)CNC(=O)CNC(=O)[C@H](CC(N)=O)NC(=O)[C@H](CCCNC(=N)N)NC(=O)[C@H](Cc2ccccc2)NC(=O)[C@@H](NC(=O)[C@H](C)NC(=O)[C@@H](NC(=O)[C@H](CC(=O)O)NC(=O)[C@H](CCCCN)NC(=O)[C@H](CCC(=O)O)NC(=O)CNC(=O)[C@@H](NC(=O)[C@H](CO)NC(=O)[C@@H]2CCCN2C(=O)[C@@H](N)CC(C)C)[C@@H](C)O)[C@@H](C)O)C(C)C)C(=O)NCC(=O)N[C@@H](CCCCN)C(=O)N[C@@H](CCC(=O)O)C(=O)N1)C(=O)N[C@H](C(N)=O)C(C)C [ssTAMP] (H-LPSTGEKDTAVFRNGGFFRKSKEK[S5]GKE[S5]KRIV-NH2; staple 25-29; N-terminus assumed),Minimum Inhibitory concentration,S. pneumonia [1],10.42 ± 2.08 µg/mL
same,Minimum Inhibitory concentration,S. pneumonia [1]; [15],10.42 ± 2.08 µg/mL
same,Minimum Inhibitory concentration,S. aureus [2],12.50 ± 0.000 µg/mL
same,Minimum Inhibitory concentration,"S. aureus [2]; S. aureus, microdilution, overnight 37° C., mean±SD, n=3",12.50 ± 0.000 µg/mL
same,"IC50, cytotoxicity by MTT assay",A549 lung cancer cells,265.0 µg/mL
same,cells viable,A549 lung cancer cells; 250 μg/ml,more than 50%
same,"IC50, cytotoxicity by MTT assay",[3],558.2 µg/mL
same,cells viable,[3]; 250 μg/ml,more than 50%
same,Minimum Inhibitory concentration,B. subtilis [4],8.33 ± 2.08 µg/mL
same,Minimum Inhibitory concentration,B. subtilis [4]; [16],8.33 ± 2.08 µg/mL
same,Minimum Inhibitory concentration,Kleibsella pneumonia [5],5.21 ± 1.042 µg/mL
same,Minimum Inhibitory concentration,Kleibsella pneumonia [5]; [17],5.21 ± 1.042 µg/mL
same,Zone of inhibition,Kleibsella pneumonia [6],23.47±1.40 mm
same,Minimum Inhibitory concentration,E. coli [7],5.21 ± 1.05 µg/mL
same,Minimum Inhibitory concentration,E. coli [7]; [18],5.21 ± 1.05 µg/mL
same,Zone of inhibition,Streptococcus pneumonia,20.17±0.72 mm
same,Zone of inhibition,Escherichia coli,24.30±1.08 mm
same,Zone of inhibition,Streptococcus mutans,22.23±1.39 mm
same,Zone of inhibition,Bacillus subtilis,20.63±0.85 mm
same,Zone of inhibition,Staphylococcus aureus,9.60±0.32 mm
same,Minimum Inhibitory concentration,S. mutans [8],8.33 ± 2.08 µg/mL
same,Minimum Inhibitory concentration,S. mutans [8]; [19],8.33 ± 2.08 µg/mL
NC[C@H]1O[C@H](O[C@H]2[C@H](O)[C@@H](O[C@H]3O[C@H](CO)[C@@H](O)[C@H](N)[C@H]3O)[C@H](N)C[C@@H]2N)[C@H](O)[C@@H](O)[C@@H]1O [Kanamycin],Minimum Inhibitory concentration,S. pneumonia [1]; [15],1.67 ± 0.42 µg/mL
same,Minimum Inhibitory concentration,B. subtilis [4]; [16],1.67 ± 0.42 µg/mL
same,Minimum Inhibitory concentration,Kleibsella pneumonia [5]; [17],1.25 ± 0.00 µg/mL
same,Zone of inhibition,Kleibsella pneumonia [6],15.10 ± 0.74 mm
same,zone of inhibition at 10 µg/mL,Kleibsella pneumonia [6],15.1 ± 0.74 mm
same,MIC,S. pneumonia [9],1.67 ± 0.42 µg/mL
same,MIC,S. aureus [10],1.67 ± 0.42 µg/mL
same,MIC,S. mutans [11],1.04 ± 0.21 µg/mL
same,Minimum Inhibitory concentration,E. coli [7]; [18],1.46 ± 0.55 µg/mL
same,MIC,E. coli [12],1.46 ± 0.55 µg/mL
same,Zone of inhibition,Streptococcus pneumonia,15.70 ± 0.4 mm
same,zone of inhibition at 10 µg/mL,Streptococcus pneumonia; Streptococcus pneumoniae,15.7 ± 0.4 mm
same,Zone of inhibition,Escherichia coli,14.90 ± 0.25 mm
same,zone of inhibition at 10 µg/mL,Escherichia coli; Escherichia coli,14.9 ± 0.25 mm
same,Zone of inhibition,Streptococcus mutans,18.37 ± 0.58 mm
same,zone of inhibition at 10 µg/mL,Streptococcus mutans; Streptococcus mutans,18.4 ± 0.58 mm
same,Zone of inhibition,Bacillus subtilis,16.40 ± 0.46 mm
same,zone of inhibition at 10 µg/mL,Bacillus subtilis; Bacillus subtilis,16.4 ± 0.46 mm
same,Zone of inhibition,Staphylococcus aureus,16.07 ± 0.45 mm
same,zone of inhibition at 10 µg/mL,Staphylococcus aureus; Staphylococcus aureus,16.1 ± 0.45 mm
same,Minimum Inhibitory concentration,S. mutans [8]; [19],1.04 ± 0.21 µg/mL
same,MIC,Kleibsella pneumonia [13],1.25 µg/mL
same,MIC,B. subtilis [14],1.67 ± 0.42 µg/mL
